In this assay the test system is CEM cells HIV-1 protection, formazan growth assay. The assay is described as follows: NCI AIDS Antiviral Assay. To be noted: for IC50: measured here: growth of uninfected CEM cells. An outline of the steps:
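Protection of CEM cells against HIV-1 measured as cell growth via soluble formazan read-out, with five concentrations tested on both infected and uninfected cells; failure to protect may reflect toxicity.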

The source of these data is PubChem BioAssay AID179 (DTP/NCI, 2004).

Values joined by “and” are separate entries in the source; they are usually repeats but may differ in a detail not shown here. Equal entries are not always repeated. Active and inactive are the calls of the source.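 The calls were made as follows: active = compounds giving half or more protection of infected cells from virus-caused growth loss, again on retest; inactive = the rest.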 Where a SMILES comes first, the peptide text is derived from it. The star is where a group is joined. Boc = CC(C)(C)OC(=O)*

Usually EC50 stands for the concentration that produces a half-maximal response. One may read the IC50 as the concentration needed to halve the response being measured. Consider `CCCC(=N\N=C(N)N)/C(CCC)=N/N=C(N)N`, for which the EC50 was above 186 µM and the IC50 was above 186 µM. In the case of `CC1=Nc2c(ccc3c2C(=O)c2ccccc2C3=O)NC(c2ccncc2)C1` (stereo not given), the EC50 was above 7.41 µM and the 50% inhibitory concentration (IC50) is above 7.41 µM. `COc1ccc(S(=O)Cc2ccc(C(=O)O)cc2[N+](=O)[O-])cc1` (stereo not given): the EC50 was above 741 µM and the half-inhibitory concentration (IC50) came to 631 µM. Taken in the same sequence, the figures for `COc1ccc2c(c1)CCC/C2=N\NS(=O)(=O)c1c(C)cc(C)cc1C` were above 200 µM and 33.1 µM. Regarding `N#Cc1nc(/C=C/c2nc(C#N)c(N)o2)oc1N`, the EC50 was above 100 µM and the 50% inhibitory concentration (IC50) is above 100 µM. Consider `CN(C)CCCNC(=O)c1cc(NC(=O)c2cc(NC(=O)c3cc(NC(=O)c4ncccc4C(=O)O)cn3C)cn2C)cn1C`, for which the EC50 was above 200 µM and the half-maximal inhibitory concentration (IC50) was above 200 µM. With `CN(C)c1ccc(/C=N/NC2=N/C(=C\c3ccco3)C(=O)N2)cc1`, the EC50 was above 100 µM and the half-inhibitory concentration (IC50) is above 100 µM.

Take `CSc1c(C(C)=O)c(O)n(-c2ccc(C)cc2)c(=O)c1C#N`: the EC50 is above 200 µM and the concentration for half-maximal inhibition (IC50) came out at 63.1 µM. Consider `O=C1C(/C=N\C(=S)NCc2ccccc2)=C(O)c2ccccc21`, for which the EC50 was above 200 µM and the 50% inhibitory concentration (IC50) is 67.6 µM.

In the case of `CC(C)(C)/[N+]([O-])=[N+](\[O-])C(C)(C)C`, the EC50 is above 200 µM and the IC50 worked out at 33.9 µM.

Consider `O=c1cc(CN2CCCCC2)[nH]c2c1ccc1nc(CN3CCCCC3)cc(=O)n12`, for which the EC50 is above 100 µM and the half-inhibitory concentration (IC50) is above 100 µM. Regarding `O=[N+]([O-])c1ccc(-c2ccc(/C=N/n3c(-c4ccc(Cl)cc4)n[nH]c3=S)o2)cc1`, the EC50 is above 1.23 µM and the IC50 is above 1.23 µM.

Consider `CC(=O)/C(=C/c1cccc(F)c1)C(=O)c1ccccc1`, for which the EC50 is above 19.5 µM and the half-maximal inhibitory concentration (IC50) is above 19.5 µM. For `O=C(NCc1ccccc1)c1cc2cc(O)c(O)cc2cn1`, the EC50 is above 200 µM; the half-inhibitory concentration (IC50) is 5.13 µM and > 8.32 µM. Take `O=c1oc2ccccc2c(O)c1C(C/C(=N/O)c1ccccc1)c1ccccc1` (stereo not given): the EC50 was above 200 µM and the IC50 was determined as 70.8 µM. Regarding `NC(=S)N/N=C1\CCCCc2ccccc21`, the outcome was inactive.

Regarding `NC(=S)Nc1ccc2c(c1)oc1ccccc12`, the EC50 was above 200 µM and the IC50 is above 200 µM. In the case of `CCCCCCc1cc(C(=O)Nc2ccc(Cl)cc2)nc(=S)[nH]1`, the EC50 was above 708 µM and the IC50 stood at 479 µM. For `CCCC(OCC)(OCC)OCC`, in that order: above 1320 µM and above 1320 µM. For `COC(=O)c1cc2c(C(=O)OC)cc1CSCc1cccc(c1)CSC2`, in that order: above 200 µM and above 200 µM.

For the molecule `Cn1c(C(=O)/C=C/c2ccc([N+](=O)[O-])cc2)nc2ccccc21`, the EC50 was above 200 µM and the half-inhibitory concentration (IC50) stood at 33.1 µM. For `ClCC1(CCl)COC1`, in that order: above 1620 µM and above 1620 µM. On to `O=C(OC1CCCC1)C1(O)CCCCC1`, for which the EC50 is above 200 µM and the IC50 was above 200 µM.

On to `CCOCC(NC(=O)C(CC(C)C)NC(=O)OC(C)(C)C)C(N)=O` (stereo not drawn) (Boc-Leu-Ser(Et)-NH2; configuration not given here), for which the EC50 was above 200 µM and the half-maximal inhibitory concentration (IC50) is above 200 µM. On to `C/C(O)=C(\C=N\C(N)=S)C(=O)Nc1ccc(Cl)cc1`, for which the EC50 is above 200 µM and the half-inhibitory concentration (IC50) was above 100 µM.

For `O=C(O)c1ccc([N+](=O)[O-])c2cc3cnccc3nc12`, the EC50 is above 200 µM and the IC50 amounted to 2.88 µM. For `C=CC1=C(C)C2=NC1=CC1=NC(=CC3=C(C)C4=C(O)C(C(=O)OC)C(=C5NC(=C2)C(C)C5CCC(=O)OC/C=C(\C)CCCC(C)CCCC(C)CCCC(C)C)C4=N3)C(CC)=C1C` (stereo not given), in that order: above 100 µM and 2.14 µM. As to `C#CCN(N=O)C(=O)NC(CCCCNC(=O)OCc1ccccc1)C(=O)OCc1ccccc1` (stereo not given), the EC50 is above 10.7 µM and the IC50 was above 10.7 µM. For the molecule `COc1ccc(-c2cc(=O)c3ccc(O)cc3o2)cc1OC`, the EC50 is above 100 µM and the IC50 is 24 µM. For `CSc1ccn(C2CC(F)C(CO)O2)c(=O)n1` (stereo not given), in that order: 42.7 µM and above 200 µM.

For the molecule `Cc1cc(N(CCC#N)CCC#N)ccc1/C(N=Nc1ccc(Cl)cc1)=N\NC(=O)c1ccccc1`, the EC50 was above 200 µM and the IC50 was determined as 21.4 µM.

Consider `O=C1C=C(Nc2ccc(S(=O)(=O)Nc3nccs3)cc2)c2ccccc2C1=O`, for which the EC50 is above 316 µM and the IC50 was 38.9 µM.

`[O-][N+]1=C(c2ccccc2)COc2ccccc21`: the EC50 is above 115 µM and the IC50 was above 115 µM. As to `COC1=C(C)C(=O)C2=C(C1=O)C1C3CC4=C(C(=O)C(OC)=C(C)C4=O)C(CNC(=O)C(C)=O)N3C(C#N)C(C2)N1C` (stereo not given), the EC50 is above 1.2 µM and the IC50 is 0.0245 µM. Taken in the same sequence, the figures for `CC1(c2ccc(F)cc2)C(C#N)C(=O)NC(=O)C1C#N` (stereo not given) were above 912 µM and 170 µM. Taken in the same sequence, the figures for `CC(C)C(=O)Oc1cc2c(=O)oc3c(OC(=O)C(C)C)c(OC(=O)C(C)C)cc4c(=O)oc(c1OC(=O)C(C)C)c2c34` were above 50.1 µM and above 50.1 µM. For the molecule `CC1(C)CC[C@]2(C(=O)O)CCC3(C)C(=CCC4[C@@]5(C)CC[C@H](OC6OCC(O)C(O)C6OC6OC(CO)C(O)C(O)C6O)C(C)(C)C5CC[C@]43C)C2C1` (stereo not given in full), the result was inactive.

Regarding `CN(C)/N=C(/c1nc2ccc(Cl)cc2[nH]c1=O)C(O)c1ccc(C(O)/C(=N\N(C)C)c2nc3ccc(Cl)cc3[nH]c2=O)cc1` (stereo not given), the EC50 is above 389 µM and the IC50 was found to be 24 µM. For `Cn1c(=O)n(C2(C)C[Se]C2)c2ccccc21`, in that order: above 468 µM and 166 µM. Consider `COc1cc2oc3ccccc3c(=O)c2cc1CSc1ccccc1N`, for which the EC50 was above 14.5 µM and the half-inhibitory concentration (IC50) is 11 µM. Taken in the same sequence, the figures for `O=C1CCCC/C1=C1\C(=O)Nc2cc(F)ccc21` were above 1020 µM and 107 µM. Taken in the same sequence, the figures for `Brc1ccc(/C=C2\C=Cc3ccccc32)cc1` were above 25.7 µM and above 25.7 µM. Taken in the same sequence, the figures for `CCOC(=O)C1Cc2c([nH]c(=O)[nH]c2=O)OC1(C)c1ccccc1` (stereo not given) were above 200 µM and above 200 µM. Turning to `COC1N(C2C=CC(CO)O2)C(=O)NC(=O)C1(C)Cl` (stereo not given), the EC50 is 468 µM and the IC50 was 1020 µM. With `CCN(Cc1cccc(S(=O)(=O)O)c1)c1ccc(C(=C2C=CC(=[N+](CC)Cc3cccc(S(=O)(=O)O)c3)C=C2)c2ccc(S(=O)(=O)O)cc2)cc1`, the EC50 is above 112 µM and the IC50 is 79.4 µM. Take `COc1cc(OC)c2c(c1)C(=O)c1cc(C)cc(O)c1C2=O`: the result was inactive. Regarding `CC(C)c1nsc2c1C(=O)NC(C(C)(C)C)N2` (stereo not given), the EC50 is above 269 µM and the IC50 stood at 209 µM. Taken in the same sequence, the figures for `COc1ccc(C(OCC2OC(n3ccc(NC(=O)c4ccccc4)nc3=O)C(O)C2O)(c2ccccc2)c2ccccc2)cc1` (stereo not given) were above 200 µM and 9.33 µM. Consider `Cc1ccc(Nc2nc(=O)[nH]c(=O)[nH]2)cc1N`, for which the EC50 was above 200 µM and the IC50 was above 200 µM. On to `O=c1cc(NNc2ccc(F)cc2)[nH]c(=O)[nH]1`, for which the EC50 is above 200 µM and the IC50 was determined as 2.95 µM. Take `COc1ccc2c(c1OC)C(=O)c1ccoc1C2=O`: the outcome was inactive. With `COc1ccc(/C=N/NC(N)=O)cc1`, the EC50 was above 186 µM and the 50% inhibitory concentration (IC50) is above 186 µM.

As to `CCOC(=O)CN1CCNCCN(CC(=O)OCC)CCNCC1`, the EC50 is above 100 µM and the 50% inhibitory concentration (IC50) amounted to 9.77 µM. For `Cc1ccc(S(=O)(=O)/C(C#N)=C\NC(=S)N=Nc2c(O)[nH]c3ccccc23)cc1`, in that order: above 200 µM and above 200 µM. Taken in the same sequence, the figures for `CCOC(=O)C1=C(O)c2c(sc(C)c2C)N(S(=O)(=O)c2ccc(C)cc2)CC1` were above 200 µM and 52.5 µM. Taken in the same sequence, the figures for `CC1C2CC3(c4ccccc4)CC(/C2=N\O)/C(=N/O)C1/C3=C\O` (stereo not given) were above 200 µM and above 200 µM.

As for `FC(F)(F)c1ccc(C2SCc3nc4ccccc4n32)cc1` (stereo not given), the outcome was inactive.

Turning to `Nc1nc(=S)c2ncn(C3CC(O)C(CO)O3)c2[nH]1` (stereo not given), the EC50 is above 891 µM; the IC50 was 0.457 µM and 2.09 µM. Take `CN(C)CCC(/C=C/c1ccccc1)=N\Nc1ccc(Cl)cc1Cl`: the outcome was inactive. `C/C=N\N1C(=O)c2ccccc2C1=O`: the EC50 is above 191 µM and the IC50 is above 191 µM. Take `CC1(C)OCC([C@H]2CC23SCCCS3)O1` (stereo not given in full): the EC50 was above 200 µM and the IC50 is above 200 µM.

For `Cn1c(=O)c2nc3c(nc2n(C)c1=O)oc1ccccc13`, the result was inactive. On the same count and under the same terms, to `O=C1C=Cc2c(-c3ccccc3)oc3cccc1c23` belongs “inactive”. Regarding `COc1cc(O)c(/C=N/N=C(\N)NO)c(OC)c1`, the EC50 is above 200 µM and the IC50 came out at 44.7 µM.

Consider `COC1/C=C/OC2(C)Oc3c(C)c(O)c4c(O)c(c(/C=N/N5C(C)CN(Cc6ccc([N+](=O)[O-])cc6)CC5C)c(O)c4c3C2=O)NC(=O)/C(C)=C\C=C\C(C)C(O)C(C)C(O)C(C)C(OC(C)=O)C1C` (stereo not given), for which the EC50 is above 200 µM and the concentration for half-maximal inhibition (IC50) was found to be 7.59 µM.

On to `CC(=O)C(N=Nc1ccc(S(=O)(=O)NC2ONC(C)C2C)cc1)C(=O)Nc1ccc(Cl)cc1` (stereo not given), for which the EC50 is above 200 µM and the IC50 is 36.3 µM.

Consider `COc1ccc(/C=C2/SC(c3ccccc3)N(NC(=O)CCCCCCCCC(=O)NN3C(=O)/C(=C\c4ccc(OC)c(OC)c4)SC3c3ccccc3)C2=O)cc1OC` (stereo not given), for which the EC50 is above 200 µM and the IC50 came to 91.2 µM. Taken in the same sequence, the figures for `COc1ccc(N2C(=O)C3c4[nH]c5ccc(OCc6ccccc6)cc5c4C4CCC(C(C)(C)C)CC4C3C2=O)cc1` (stereo not given) were above 200 µM and 16.6 µM. Turning to `COc1ccc(/C=N/N=C(N)N)c(C(=O)O)c1OC`, the result was inactive.

Take `CCOP(=O)(OCC)C1CC(C)OC1=O` (stereo not given): the result was inactive.
